Assay results from patent US8304446B2, “Compounds” (Glaxo Group Limited, priority 2009, dated 2012).
Structures can show the parent of a compound that is named as a salt.

Test system: CD4+ CCR4+ T cells
Assay: Chemokine stimulated increases in cellular F-actin content
Format: cell-based
Settings: Homo sapiens, T-cell, 0.5 h; PBMC from normal volunteers; antagonist 30 min at 37° C. before agonist for 15 sec; F-actin content by flow cytometry; read-out: pA2 (converted)
Experimental: Chemokine Stimulated Increases in Cellular F-Actin Content
Blood was taken from normal volunteers who had taken no medication within the previous ten days and mixed with 1/9 of the volume of 3.8% tri-sodium citrate solution. Chemokine-induced increases in the F-actin content of CD4+ CCR4+ T cells were measured by a modification of the method of Pilette et al. (Eur. Respir. J; 23: 876-884, 2004). Peripheral blood mononuclear cells (PBMC) were isolated by dextran sedimentation followed by Percoll density gradient centrifugation. The PBMCs were incubated with FITC-conjugated anti-human CD4 and PE-conjugated anti-CCR4 antibodies or appropriate isotype controls for 15 min. The cell suspensions were then centrifuged at 400 g for 10 min and the pellets resuspended in assay buffer (phenol red-free RPMI 1640 medium containing 10 mM HEPES and 0.1% bovine serum albumin) at 10^7/mL. The resulting cell suspension was incubated with antagonist or vehicle (0.1% DMSO) for 30 min at 37° C. before stimulation with the agonist for 15 sec. The assay was terminated by addition of 3% formaldehyde. The fixed cells were washed twice with PBS (centrifuging at 1000 g for 5 min to recover the cells) and incubated at room temperature with Alexa fluor-647 phalloidin (0.075 U/mL) in the presence of lyso-phosphatidylcholine (93.75 μg/ml) for 20 min to stain F-actin. The cells were washed once more with PBS and the relative F-actin content of the cells was measured flow cytometrically. The mean fluorescence intensity of 1000 CD4^+ CCR4^+ cells per sample was determined and expressed as a fraction of the mean intensity of the CD4^+ CCR4^− cells in that sample.

Row | SMILES | Kb [µM]
1 | COc1cccc2c1c(NS(=O)(=O)c1ccc(Cl)s1)nn2Cc1cccc(CNC(=O)[C@@H]2CCCN2C)c1 [Example 39, N-[(3-{[3-{[(5-Chloro-2-thienyl)sulfonyl]amino}-4-(methyloxy)-1H-indazol-1-yl]methyl}phenyl)methyl]-methyl-L-prolinamide trifluoroacetate] | ≤ 0.126
2 | COc1cccc2c1c(NS(=O)(=O)c1ccc(Cl)s1)nn2Cc1cccc(CNC(=O)[C@H]2CCCN2C)c1 [Example 40, N-[(3-{[3-{[(5-Chloro-2-thienyl)sulfonyl]amino}-4-(methyloxy)-1H-indazol-1-yl]methyl}phenyl)methyl]-1-methyl-D-prolinamide trifluoroacetate] | ≤ 0.126
3 | COc1cccc2c1c(NS(=O)(=O)c1ccc(Cl)s1)nn2Cc1cccc(CNC(=O)c2ccoc2)c1 [Example 41, N-[(3-{[3-{[(5-Chloro-2-thienyl)sulfonyl]amino}-4-(methyloxy)-1H-indazol-1-yl]methyl}phenyl)methyl]-3-furancarboxamide] | ≤ 0.126
4 | COc1cccc2c1c(NS(=O)(=O)c1ccc(Cl)s1)nn2Cc1cccc(CNC(=O)C2CCCCN2C)c1 (stereo not shown) [Example 42, N-[(3-{[3-{[(5-chloro-2-thienyl)sulfonyl]amino}-4-(methyloxy)-1H-indazol-1-yl]methyl}phenyl)methyl]-1-methyl-2-piperidinecarboxamide trifluoroacetate] | ≤ 0.126
5 | COc1cccc2c1c(NS(=O)(=O)c1ccc(Cl)s1)nn2Cc1cccc(CNC(=O)[C@H](N)CC(C)C)c1 [Example 45, N^1-[(3-{[3-{[(5-Chloro-2-thienyl)sulfonyl]amino}-4-(methyloxy)-1H-indazol-1-yl]methyl}phenyl)methyl]-D-leucinamide] | ≤ 0.126
6 | CC[C@H](C)[C@@H](N)C(=O)NCc1cccc(Cn2nc(NS(=O)(=O)c3ccc(Cl)s3)c3c(OC)cccc32)c1 [Example 46, N^1-[(3-{[3-{[(5-Chloro-2-thienyl)sulfonyl]amino}-4-(methyloxy)-1H-indazol-1-yl]methyl}phenyl)methyl]-D-alloisoleucinamide] | ≤ 0.126
7 | COc1cccc2c1c(NS(=O)(=O)c1ccc(Cl)s1)nn2Cc1cccc(CNC(=O)[C@@H](N)Cc2ccccc2)c1 [Example 47, N-[(3-{[3-{[(5-Chloro-2-thienyl)sulfonyl]amino}-4-(methyloxy)-1H-indazol-1-yl]methyl}phenyl)methyl]-L-phenylalaninamide] | ≤ 0.126
8 | COc1cccc2c1c(NS(=O)(=O)c1ccc(Cl)s1)nn2Cc1cccc(CNC(=O)[C@@H](N)CCCCN)c1 [Example 49, N^1-[(3-{[3-{[(5-Chloro-2-thienyl)sulfonyl]amino}-4-(methyloxy)-1H-indazol-1-yl]methyl}phenyl)methyl]-L-lysinamide] | ≤ 0.126
9 | COc1cccc2c1c(NS(=O)(=O)c1ccc(Cl)s1)nn2Cc1cccc(CNC(=O)[C@H]2CCN2)c1 [Example 50, (2R)—N-[(3-{[3-{[(5-Chloro-2-thienyl)sulfonyl]amino}-4-(methyloxy)-1H-indazol-1-yl]methyl}phenyl)methyl]-2-azetidinecarboxamide trifluoroacetate] | ≤ 0.126
10 | COc1ccc(Cn2nc(NS(=O)(=O)c3ccc(Cl)s3)c3c(OC)cccc32)cc1OC [Example 53, N-[1-{[3,4-Bis(methyloxy)phenyl]methyl}-4-(methyloxy)-1H-indazol-3-yl]-5-chloro-2-thiophenesulfonamide] | ≤ 0.126
11 | COC[C@H](N)C(=O)NCc1cccc(Cn2nc(NS(=O)(=O)c3ccc(Cl)s3)c3c(OC)cccc32)c1 [Example 54, N^1-[(3-{[3-{[(5-Chloro-2-thienyl)sulfonyl]amino}-4-(methyloxy)-1H-indazol-1-yl]methyl}phenyl)methyl]-O-methylserinamide trifluoroacetate] | ≤ 0.126
12 | CNC(C)(C)C(=O)NCc1cccc(Cn2nc(NS(=O)(=O)c3ccc(Cl)s3)c3c(OC)cccc32)c1 [Example 56, N1-[(3-{[3-{[(5-Chloro-2-thienyl)sulfonyl]amino}-4-(methyloxy)-1H-indazol-1-yl]methyl}phenyl)methyl]-N2,2-dimethylalaninamide formate] | ≤ 0.126
13 | COc1cccc2c1c(NS(=O)(=O)c1ccc(Cl)s1)nn2Cc1cccc(CNS(C)(=O)=O)c1 [Example 58, 5-Chloro-N-{4-(methyloxy)-1-[(3-{[(methylsulfonyl)amino]methyl}phenyl)methyl]-1H-indazol-3-yl}-2-thiophenesulfonamide] | ≤ 0.126
14 | COc1cccc2c1c(NS(=O)(=O)c1ccc(Cl)s1)nn2Cc1cccc(CNC(N)=O)c1 [Example 59, N-[1-[(3-{[(Aminocarbonyl)amino]methyl}phenyl)methyl]-4-(methyloxy)-1H-indazol-3-yl]-5-chloro-2-thiophenesulfonamide] | ≤ 0.126
15 | COc1cccc2c1c(NS(=O)(=O)c1ccc(Cl)s1)nn2Cc1cccc(CNC(=O)NC(C)(C)C)c1 [Example 60, 5-Chloro-N-[1-({3-[({[(1,1-dimethylethyl)amino]carbonyl}amino)methyl]phenyl}methyl)-4-(methyloxy)-1H-indazol-3-yl]-2-thiophenesulfonamide] | ≤ 0.126
16 | COc1cccc2c1c(NS(=O)(=O)c1ccc(Cl)s1)nn2Cc1cccc(CNC(=O)NC(C)C)c1 [Example 61, 5-Chloro-N-[1-({3-[({[(1-methylethyl)amino]carbonyl}amino)methyl]phenyl}methyl)-4-(methyloxy)-1H-indazol-3-yl]-2-thiophenesulfonamide] | ≤ 0.126
17 | COc1cccc2c1c(NS(=O)(=O)c1ccc(Cl)s1)nn2Cc1ccc(S(N)(=O)=O)cc1 [Example 62, N-[1-{[4-(Aminosulfonyl)phenyl]methyl}-4-(methyloxy)-1H-indazol-3-yl]-5-chloro-2-thiophenesulfonamide] | ≤ 0.126
18 | CNC(=O)Cc1cccc(Cn2nc(NS(=O)(=O)c3ccc(Cl)s3)c3c(OC)cccc32)c1 [Example 63, 2-(3-{[3-{[(5-Chloro-2-thienyl)sulfonyl]amino}-4-(methyloxy)-1H-indazol-1-yl]methyl}phenyl)-N-methylacetamide] | ≤ 0.126
19 | COc1cccc2c1c(NS(=O)(=O)c1ccc(Cl)s1)nn2Cc1cccc(C(N)=O)c1 [Example 64, 3-{[3-{[(5-Chloro-2-thienyl)sulfonyl]amino}-4-(methyloxy)-1H-indazol-1-yl]methyl}benzamide] | ≤ 0.126
20 | COc1cccc2c1c(NS(=O)(=O)c1ccc(Cl)s1)nn2Cc1cccc(C(=O)NCCN(C)C)c1 [Example 65, 3-{[3-{[(5-Chloro-2-thienyl)sulfonyl]amino}-4-(methyloxy)-1H-indazol-1-yl]methyl}-N-[2-(dimethylamino)ethyl]benzamide] | ≤ 0.126
21 | COc1cccc2c1c(NS(=O)(=O)c1ccc(C)s1)nn2Cc1cccc(C(N)=O)c1 [Example 66, 3-[(4-(Methyloxy)-3-{[(5-methyl-2-thienyl)sulfonyl]amino}-1H-indazol-1-yl)methyl]benzamide] | ≤ 0.126
22 | COc1cccc2c1c(NS(=O)(=O)c1ccc(Br)s1)nn2Cc1cccc(C(N)=O)c1 [Example 67, 3-{[3-{[(5-Bromo-2-thienyl)sulfonyl]amino}-4-(methyloxy)-1H-indazol-1-yl]methyl}benzamide] | ≤ 0.126
23 | COc1ccc(F)c2c1c(NS(=O)(=O)c1ccc(Cl)s1)nn2Cc1cccc(C(N)=O)c1 [Example 68, 3-{[3-{[(5-Chloro-2-thienyl)sulfonyl]amino}-7-fluoro-4-(methyloxy)-1H-indazol-1-yl]methyl}benzamide] | ≤ 0.126
24 | NC(=O)c1cccc(Cn2nc(NS(=O)(=O)c3ccc(Cl)s3)c3c(O)ccc(F)c32)c1 [Example 69, 3-[(3-{[(5-Chloro-2-thienyl)sulfonyl]amino}-7-fluoro-4-hydroxy-1H-indazol-1-yl)methyl]benzamide] | ≤ 0.126
25 | COc1cccc2c1c(NS(=O)(=O)c1ccc(Cl)s1)nn2Cc1cccc(OCCN(C)C)c1 [Example 74, 5-Chloro-N-[1-[(3-{[2-(dimethylamino)ethyl]oxy}phenyl)methyl]-4-(methyloxy)-1H-indazol-3-yl]-2-thiophenesulfonamide] | ≤ 0.126
26 | COc1cccc2c1c(NS(=O)(=O)c1ccc(Cl)s1)nn2Cc1ccc(OCCN(C)C)cc1 [Example 75, 5-Chloro-N-[1-[(4-{[2-(dimethylamino)ethyl]oxy}phenyl)methyl]-4-(methyloxy)-1H-indazol-3-yl]-2-thiophenesulfonamide] | ≤ 0.126
27 | COc1cc(Cn2nc(NS(=O)(=O)c3ccc(Cl)s3)c3c(OC)cccc32)ccc1OCCN(C)C [Example 76, 5-Chloro-N-[1-{[4-{[2-(dimethylamino)ethyl]oxy}-3-(methyloxy)phenyl]methyl}-4-(methyloxy)-1H-indazol-3-yl]-2-thiophenesulfonamide] | ≤ 0.126
28 | COc1cccc2c1c(NS(=O)(=O)c1ccc(Cl)s1)nn2Cc1cccc(S(N)(=O)=O)c1 [Example 77, N-[1-{[3-(aminosulfonyl)phenyl]methyl}-4-(methyloxy)-1H-indazol-3-yl]-5-chloro-2-thiophenesulfonamide] | ≤ 0.126
